# Test system: IL-1β release in U937 cells after NLRP3 activation
# Assay: IL-1β release inhibition in U937 cells (MSD V-Plex)
# Conditions: Homo sapiens, U-937, read-out: IL-1β IC50, Table 3; PMA-differentiated U937 cells, 1 μg/mL LPS 3 h, compound 30 min, 10 mM nigericin 1 h
# Method: Differentiating media was prepared by adding 20 nM phorbol 12-myristate 13-acetate (PMA) (AdipoGen AG-CN2-0010-M005) to growth medium. A cell suspension was prepared with differentiating media at 500K cells/mL. […] Plates were placed in an incubator for 90 hours. […] Differentiating media was removed and priming media was added to each well. The plates were placed in the incubator for three (3) hours. 20 mM compound DMSO stock solutions were prepared and were further diluted to 0.4 mM; This solution was serially diluted 6 times in a 1:5 ratio. A solvent control was included.
# After three (3) hours of priming, all the media was removed. Next, assay media with compounds was added in duplicate columns. The plate was placed in an incubator for 30 min. Media with a final concentration of 10 mM nigericin was then added for one (1) hour. The supernatant was collected and frozen immediately at −80° C. The plate was transferred to −20° C. the next day and for later determination of cytokine IL-1ß levels.
# The release of IL-1ß into the cell media was determined with the MSD® Multi-Spot Assay System (V-Plex, IL-1ß kit, K151KPD). Following the manufacturer's protocol (Alternate Protocol 3, Dilute-In-Plate), the level of IL-1ß in the above collected supernatant plate was measured using electro-chemiluminescent signals. Using MSD DISCOVERY WORKBENCH® analysis software, the signals were converted to the concentration of IL-1ß in each well. The IC50 values of the compounds were calculated using fitted non-linear regression curve in Graph Pad Prism software. The detection range of IL-1ß using MSD kit was approximately 0.15 to 600 μg/mL (based on various lots of standards purchased from MSD).
row,SMILES,IC50
1,"Cc1cc(N[C@@H]2CCCN(CC(=O)N3CCC(CO)CC3)C2)nnc1-c1ccc(C(F)(F)F)cc1O [Example 58, (R)-2-(3-((6-(2-Hydroxy-4-(trifluoromethyl)phenyl)-5-methylpyridazin-3-yl)amino)piperidin-1-yl)-1-(4-(hydroxymethyl)piperidin-1-yl)ethan-1-one]",5 to 50 nM
2,"Cc1c(N[C@@H]2CCCN(C(=O)C34CC(O)(C3)C4)C2)nnc(-c2ccc(C(F)(F)F)cc2O)c1C [Example 67, (R)-(3-((6-(2-hydroxy-4-(trifluoromethyl)phenyl)-4,5-dimethylpyridazin-3-yl)amino)piperidin-1-yl) (3-hydroxybicyclo[1.1.1]pentan-1-yl)methanone]",5 to 50 nM
3,"Cc1cc(N[C@@H]2CCCN(CC(=O)N3CC[C@H](O)C3)C2)nnc1-c1ccc(C(F)(F)F)cc1O [Compound 11, 2-((R)-3-((6-(2-Hydroxy-4-(trifluoromethyl)phenyl)-5-methylpyridazin-3-yl)amino)piperidin-1-yl)-1-((S)-3-hydroxypyrrolidin-1-yl)ethan-1-one]",< 5 nM
4,"O=C(CN1CCC[C@@H](Nc2nnc(-c3ccc(C(F)(F)F)cc3O)c3c2COC3)C1)N1CCC2(CC1)CC(O)C2 [Compound 24, (R)-2-(3-((4-(2-Hydroxy-4-(trifluoromethyl)phenyl)-5,7-dihydrofuro[3,4-d]pyridazin-1-yl)amino)piperidin-1-yl)-1-(2-hydroxy-7-azaspiro[3.5]nonan-7-yl)ethan-1-one]",5 to 50 nM
5,"CN1Cc2c(N[C@@H]3CCCN(CC(=O)N4CCC(O)CC4)C3)nnc(-c3ccc(C(F)(F)F)cc3O)c2C1 [Example 60, (R)-2-(3-((4-(2-Hydroxy-4-(trifluoromethyl)phenyl)-6-methyl-6,7-dihydro-5H-pyrrolo[3,4-d]pyridazin-1-yl)amino)piperidin-1-yl)-1-(4-hydroxypiperidin-1-yl)ethan-1-one]",50 to 500 nM
6,"Cc1cc(N[C@@H]2CCCN(C3CCN(C4CCC(O)CC4)CC3)C2)nnc1-c1ccc(C(F)(F)F)cc1O (single isomer, unassigned) [Example 39A]",5 to 50 nM
7,"Cc1cc(N[C@@H]2CCCN(CC(=O)N3CC4(CC(O)C4)C3)C2)nnc1-c1ccc(C(F)(F)F)cc1O [Compound 16, (R)-2-(3-((6-(2-Hydroxy-4-(trifluoromethyl)phenyl)-5-methylpyridazin-3-yl)amino)piperidin-1-yl)-1-(6-hydroxy-2-azaspiro[3.3]heptan-2-yl)ethan-1-one]",5 to 50 nM
8,"Cc1cc(N[C@@H]2CCCN(CC(=O)N3CCC4(CC3)CC(O)C4)C2)nnc1-c1ccc(C(F)(F)F)cc1O [Compound 15, 2-[(3R)-3-({6-[2-Hydroxy-4-(trifluoromethyl)phenyl]-5-methylpyridazin-3-yl}amino)piperidin-1-yl]-1-{2-hydroxy-7-azaspiro[3.5]nonan-7-yl}ethanone]",< 5 nM
9,"Cc1c(-c2ccc(C(F)(F)F)cc2O)nnc2c1CCCN2[C@@H]1CCCN(CC(=O)N2CCC3(CC2)CC(O)C3)C1 [Example 43, 2-[(3R)-3-{3-[2-Hydroxy-4-(trifluoromethyl)phenyl]-4-methyl-5H,6H,7H-pyrido[2,3-c]pyridazin-8-yl}piperidin-1-yl]-1-{2-hydroxy-7-azaspiro[3.5]nonan-7-yl}ethanone]",50 to 500 nM
10,"Cc1cc(N[C@@H]2CCCN(CC3CC(O)C3)C2)nnc1-c1ccc2sccc2c1O (stereo partly drawn) [Example 52, 5-(6-(((R)-1-(((1r,3R)-3-Hydroxycyclobutyl)methyl)piperidin-3-yl)amino)-4-methylpyridazin-3-yl)benzo[b]thiophen-4-ol]",< 5 nM
11,"Cc1cc(N[C@@H]2CCCN(CC(=O)N3CCC(O)C3)C2)nnc1-c1ccc(C(F)(F)F)cc1O (stereo partly drawn) [Compound 1, 2-((R)-3-((6-(2-Hydroxy-4-(trifluoromethyl)phenyl)-5-methylpyridazin-3-yl)amino)piperidin-1-yl)-1-(3-hydroxypyrrolidin-1-yl)ethan-1-one]",5 to 50 nM
12,"O=C(CN1CCC[C@@H](Nc2nnc(-c3ccc(C(F)(F)F)cc3O)c3c2CNC3)C1)N1CCC(O)CC1 [Example 57, (R)-2-(3-((4-(2-Hydroxy-4-(trifluoromethyl)phenyl)-6,7-dihydro-5H-pyrrolo[3,4-d]pyridazin-1-yl)amino)piperidin-1-yl)-1-(4-hydroxypiperidin-1-yl)ethan-1-one]",50 to 500 nM
13,"Cc1cc(N[C@@H]2CCCN(C3CCN(C(=O)N4CCC(O)CC4)CC3)C2)nnc1-c1ccc(C(F)(F)F)cc1O [Example 41, (R)-(3-((6-(2-Hydroxy-4-(trifluoromethyl)phenyl)-5-methylpyridazin-3-yl)amino)-[1,4′-bipiperidin]-1′-yl) (4-hydroxypiperidin-1-yl)methanone]",5 to 50 nM
14,"Oc1cc(C(F)(F)F)ccc1-c1nnc(N[C@@H]2CCCN(CCN3CC[C@@H](O)C3)C2)c2c1COC2 [Example 36, (R)-1-(2-((R)-3-((4-(2-Hydroxy-4-(trifluoromethyl)phenyl)-5,7-dihydrofuro[3,4-d]pyridazin-1-yl)amino)piperidin-1-yl)ethyl)pyrrolidin-3-ol]",5 to 50 nM
15,"O=C(CN1CCC[C@@H](Nc2nnc(-c3ccc(C(F)(F)F)cc3O)c3ccccc23)C1)N1CCC(O)CC1 [Example 33, (R)-2-(3-((4-(2-Hydroxy-4-(trifluoromethyl)phenyl)phthalazin-1-yl)amino)piperidin-1-yl)-1-(4-hydroxypiperidin-1-yl)ethan-1-one]",< 5 nM
16,"Cc1cc(N[C@@H]2CCCN(CC(=O)N3CCC(O)CC3)C2)nnc1-c1ccc(C(F)(F)F)cc1O [Compound 9, 2-[(3R)-3-({6-[2-Hydroxy-4-(trifluoromethyl)phenyl]-5-methylpyridazin-3-yl}amino)piperidin-1-yl]-1-(4-hydroxypiperidin-1-yl)ethanone]",5 to 50 nM
17,"Cc1cc(N[C@@H]2CCCN(CC(=O)N3CC(C)(CO)C3)C2)nnc1-c1ccc(C(F)(F)F)cc1O [Example 48, (R)-2-(3-((6-(2-Hydroxy-4-(trifluoromethyl)phenyl)-5-methylpyridazin-3-yl)amino)piperidin-1-yl)-1-(3-(hydroxymethyl)-3-methylazetidin-1-yl)ethan-1-one]",5 to 50 nM
18,"Cc1c(-c2ccc(C(F)(F)F)cc2O)nnc2c1CCCN2[C@@H]1CCCN(C2CCN(C3CC(O)C3)CC2)C1 (stereo partly drawn) [Example 44, 2-{8-[(3R)-1′-(3-Hydroxycyclobutyl)-[1,4′-bipiperidin]-3-yl]-4-methyl-5H,6H,7H-pyrido[2,3-c]pyridazin-3-yl}-5-(trifluoromethyl)phenol]",50 to 500 nM
19,"Cc1cc(N[C@@H]2CCCN(CCN3CC[C@H](O)C3)C2)nnc1-c1ccc(C(F)(F)F)cc1O [Compound 4, (S)-1-(2-((R)-3-((6-(2-Hydroxy-4-(trifluoromethyl)phenyl)-5-methylpyridazin-3-yl)amino)piperidin-1-yl)ethyl)pyrrolidin-3-ol]",> 500 nM
20,"Cc1c(N[C@@H]2CCCN(CC(=O)N3CCC(O)CC3)C2)nnc(-c2ccc(C(F)(F)F)cc2O)c1C [Example 30, (R)-2-(3-((6-(2-Hydroxy-4-(trifluoromethyl)phenyl)-4,5-dimethylpyridazin-3-yl)amino)piperidin-1-yl)-1-(4-hydroxypiperidin-1-yl)ethan-1-one]",5 to 50 nM
21,"O=C(CN1CCC[C@@H](Nc2nnc(-c3ccc(C(F)(F)F)cc3O)c3c2COC3)C1)N1C[C@H](O)[C@@H](F)C1 [Example 28, 1-((3S,4S)-3-Fluoro-4-hydroxypyrrolidin-1-yl)-2-((R)-3-((4-(2-hydroxy-4-(trifluoromethyl)phenyl)-5,7-dihydrofuro[3,4-d]pyridazin-1-yl)amino)piperidin-1-yl)ethan-1-one]",5 to 50 nM
22,"Cc1cc(N[C@@H]2CCCN(C3CCC(O)CC3)C2)nnc1-c1ccc(C(F)(F)F)cc1O (single isomer, unassigned) [Example 53]",< 5 nM
23,"Cc1cc(N[C@@H]2CCCN(CC34CC(O)(C3)C4)C2)nnc1-c1ccc(C(F)(F)F)cc1O [Example 64, (R)-3-((3-((6-(2-Hydroxy-4-(trifluoromethyl)phenyl)-5-methylpyridazin-3-yl)amino)piperidin-1-yl)methyl) bicyclo[1.1.1]pentan-1-ol]",< 5 nM

# Same assay, conditions: Homo sapiens, U-937, read-out: IL-1β IC50, Table 4; PMA-differentiated U937 cells, 1 μg/mL LPS 3 h, compound 30 min, 10 mM nigericin 1 h
row,SMILES,IC50
1,"Cc1cc(N[C@@H]2CCCN(CC(=O)N3CC(N)C3)C2)nnc1-c1ccc(C(F)(F)F)cc1O [Example 77, (R)-1-(3-Aminoazetidin-1-yl)-2-(3-((6-(2-hydroxy-4-(trifluoromethyl)phenyl)-5-methylpyridazin-3-yl)amino)piperidin-1-yl)ethan-1-one]",5 to 50 nM
2,"Cc1cc(N[C@@H]2CCCN(C[C@H]3CCCN3)C2)nnc1-c1ccc(C(F)(F)F)cc1O [Example 107, 2-(4-Methyl-6-(((R)-1-(((R)-pyrrolidin-2-yl)methyl)piperidin-3-yl)amino)pyridazin-3-yl)-5-(trifluoromethyl)phenol]",5 to 50 nM
3,"Cc1cc(N[C@@H]2CCCN(C3CCN(CCN)CC3)C2)nnc1-c1ccc(C(F)(F)F)cc1O [Example 98, (R)-2-(6-((1′-(2-Aminoethyl)-[1,4′-bipiperidin]-3-yl)amino)-4-methylpyridazin-3-yl)-5-(trifluoromethyl)phenol]",50 to 500 nM
4,"Cc1cc(N[C@@H]2CCCN(CC(=O)N3CCN[C@@H](C)C3)C2)nnc1-c1ccc(C(F)(F)F)cc1O [Example 111, 2-((R)-3-((6-(2-Hydroxy-4-(trifluoromethyl)phenyl)-5-methylpyridazin-3-yl)amino)piperidin-1-yl)-1-((S)-3-methylpiperazin-1-yl)ethan-1-one]",5 to 50 nM
5,"Cc1cc(N[C@@H]2CCCN(CCN)C2)nnc1-c1ccc(C(F)(F)F)cc1O [Example 78, (R)-2-(6-((1-(2-Aminoethyl)piperidin-3-yl)amino)-4-methylpyridazin-3-yl)-5-(trifluoromethyl)phenol]",< 5 nM

# Same assay, conditions: read-out: IL-1β IC50; Table 3; PMA-differentiated U937 cells, 1 μg/mL LPS 3 h, compound 30 min, 10 mM nigericin 1 h
row,SMILES,IC50
1,"Cc1cc(N[C@@H]2CCCN(C(=O)C3CCCC(O)C3)C2)nnc1-c1ccc(C(F)(F)F)cc1O (single isomer, unassigned) [Example 70 Fraction B]",< 5 nM
